Assay [1] has as its target human FPR2 (Homo sapiens (Human), UniProt P25090). The experiment in a line: FPR2 cyclic adenosine monophosphate (cAMP) assay. Type of assay: cell-based. To be noted: CHO cells overexpressing human FPR2; forskolin 5 µM; inhibition of cAMP production; read-out: hFPR2 cAMP2 EC50. From the text:
(§1) N-formyl peptide receptors (FPRs) are a family of chemo attractant receptors that facilitate leukocyte response during inflammation. FPRs belong to the seven-transmembrane G protein-coupled receptor superfamily and are linked to inhibitory G-proteins (Gi). Three family members (FPR1, FPR2 and FPR3) have been identified in humans and are predominantly found in myeloid cells with varied distribution and have also been reported in multiple organs and tissues. After agonist binding, the FPRs activate a multitude of physiological pathways, such as intra cellular signaling transduction, Ca^2+ mobilization and transcription. The family interacts with a diverse set of ligands that includes proteins, polypeptides and fatty acid metabolites which activate both pro-inflammatory and pro-resolution downstream responses. FPR2 and FPR1 Cyclic Adenosine Monophosphate (cAMP) Assays were used to measure the activity of the compounds in this patent.
(§2) FPR2 and FPR1 Cyclic Adenosine Monophosphate (cAMP) Assays. A mixture of forskolin (5 µM final for FPR2 or 10 µM final for FPR1) and IBMX (200 µM final) were added to 384-well Proxiplates (Perkin-Elmer) pre-dotted with test compounds in DMSO (1% final) at final concentrations in the range of 0.020 nM to 100 µM. Chinese Hamster Ovary cells (CHO) overexpressing human FPR1 or human FPR2 receptors were cultured in F-12 (Ham’s) medium supplemented with 10% qualified FBS, 250 µg/ml zeocin and 300 µg/ml hygromycin (Life Technologies). Reactions were initiated by adding 2,000 human FPR2 cells per well or 4,000 human FPR1 cells per well in Dulbecco’s PBS (with calcium and magnesium) (Life Technologies) supplemented with 0.1% BSA (Perkin-Elmer). The reaction mixtures were incubated for 30 min at room temperature. The level of intracellular cAMP was determined using the HTRF HiRange cAMP assay reagent kit (Cisbio) according to manufacturer’s instruction. Solutions of cryptate conjugated anti-cAMP and d2 flurorophore-labelled cAMP were made in a supplied lysis buffer separately. Upon completion of the reaction, the cells were lysed with equal volume of the d2-cAMP solution and anti-cAMP solution. After a 1-h room temperature incubation, time-resolved fluorescence intensity was measured using the Envision (Perkin-Elmer) at 400 nm excitation and dual emission at 590 nm and 665 nm. A calibration curve was constructed with an external cAMP standard at concentrations ranging from 1 µM to 0.1 pM by plotting the fluorescent intensity ratio from 665 nm emission to the intensity from the 590 nm emission against cAMP concentrations. The potency and activity of a compound to inhibit cAMP production was then determined by fitting to a 4-parametric logistic equation from a plot of cAMP level versus compound concentrations.
(In general: Changes in cAMP serve as a functional read-out for many G protein-coupled receptors.)

In assay [2] the target is human FPR1 (Homo sapiens (Human), UniProt P21462). The experiment in a line: FPR1 cyclic adenosine monophosphate (cAMP) assay. Type of assay: cell-based. To be noted: CHO cells overexpressing human FPR1; forskolin 10 µM; inhibition of cAMP production; read-out: hFPR1 cAMP EC50.
Source text: as §1
as §2, with “After a 1-h room temperature incubation, time-resolved fluorescence intensity was measured using the Envision (Perkin-Elmer) at 400 nm excitation and dual emission at 590 nm and 665 nm. A calibration curve was constructed with an external cAMP standard at concentrations ranging from 1 µM to 0.1 pM by plotting the fluorescent intensity ratio from 665 nm emission to the intensity from the 590 nm emission against cAMP concentrations.” left out

Usually EC50 stands for the midpoint of the concentration-response curve.

Where only a bound is given, the exact number is not on record here.

Sequence of human FPR2 (P25090 whole entry): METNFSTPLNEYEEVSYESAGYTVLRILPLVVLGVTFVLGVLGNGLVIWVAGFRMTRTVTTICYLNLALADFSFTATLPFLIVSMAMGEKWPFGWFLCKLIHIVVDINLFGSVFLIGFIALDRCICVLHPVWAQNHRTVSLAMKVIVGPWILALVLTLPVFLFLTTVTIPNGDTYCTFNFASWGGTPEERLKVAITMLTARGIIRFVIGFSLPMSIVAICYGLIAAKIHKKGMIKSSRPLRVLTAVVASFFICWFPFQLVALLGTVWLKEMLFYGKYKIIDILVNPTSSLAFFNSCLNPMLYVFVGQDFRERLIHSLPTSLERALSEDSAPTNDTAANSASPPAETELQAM
Sequence of human FPR1 (P21462 whole entry): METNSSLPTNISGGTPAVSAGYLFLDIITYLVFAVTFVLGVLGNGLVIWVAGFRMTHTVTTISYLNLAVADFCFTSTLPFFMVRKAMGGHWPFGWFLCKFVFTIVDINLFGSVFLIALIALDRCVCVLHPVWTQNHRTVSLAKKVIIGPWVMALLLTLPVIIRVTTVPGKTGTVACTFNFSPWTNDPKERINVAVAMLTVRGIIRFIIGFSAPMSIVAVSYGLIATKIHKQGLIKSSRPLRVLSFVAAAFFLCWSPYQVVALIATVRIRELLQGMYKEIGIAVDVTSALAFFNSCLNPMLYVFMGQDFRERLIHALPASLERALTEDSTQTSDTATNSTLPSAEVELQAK

As to `COc1cc(F)c([C@@H]2CN(c3cccn(CC(O)C(F)(F)F)c3=O)C(=O)[C@H]2NC(=O)c2ccc(OC(F)F)cc2)c(F)c1` (single isomer, unassigned) [Example 4], the EC50 in assay [1] was 1.7 nM; in assay [2], 290 nM.

In the case of `COc1cc(F)c([C@@H]2CN(c3cccn(CC(O)C(F)(F)F)c3=O)C(=O)[C@H]2NC(=O)c2ccc(OC(F)F)cc2)c(F)c1` (single isomer, unassigned) [Example 5], the EC50 in assay [1] is 2.9 nM; in assay [2] it was 14 nM.

`COc1cc(F)c([C@@H]2CN(c3cccnc3C#N)C(=O)[C@H]2NC(=O)c2ccc(OC(F)F)cc2)c(F)c1` [Example 1, N-((3S,4R)-1-(2-cyanopyridin-3-yl)-4-(2,6-difluoro-4-methoxyphenyl)-2-oxopyrrolidin-3-yl)-4-(difluoromethoxy)benzamide]: the EC50 was determined as 28 nM in assay [1] and 4200 nM in assay [2].

Regarding `COc1cc(F)c([C@@H]2CN(CC3CC3)C(=O)[C@H]2NC(=O)c2ccc(OC(F)F)cc2)c(F)c1` [Example 3, N-((3S,4R)-1-(cyclopropylmethyl)-4-(2,6-difluoro-4-methoxyphenyl)-2-oxopyrrolidin-3-yl)-4-(difluoromethoxy)benzamide], the EC50 in assay [1] is 29 nM; in assay [2] it was 1700 nM.

In the case of `COc1cc(F)c([C@@H]2CN(c3nc(Cl)ccc3C#N)C(=O)[C@H]2NC(=O)c2ccc(OC(F)F)cc2)c(F)c1` [Example 6], the EC50 in assay [1] turned out to be 5.1 nM; in assay [2] it was 650 nM.

For the molecule `COc1cc(F)c([C@@H]2CN(c3ncccc3C(F)(F)F)C(=O)[C@H]2NC(=O)c2ccc(OC(F)F)cc2)c(F)c1` [Example 7], the figures for the EC50 in assay [1] and in assay [2] were 10 nM and 1300 nM, respectively.

On to `COc1cc(F)c([C@@H]2CN(c3cc(OC)ccc3F)C(=O)[C@H]2NC(=O)c2ccc(OC(F)(F)F)cc2)c(F)c1` [Example 8], for which the results for the EC50 in assay [1] and in assay [2] were 15 nM and 280 nM, respectively.

With `COc1cc(F)c([C@@H]2CN(c3cccc(=O)n3C)C(=O)[C@H]2NC(=O)c2ccc(OC(F)F)cc2)c(F)c1` [Example 10], the EC50 in assay [1] was 50 nM; in assay [2], 290 nM.

Regarding `COc1cc(F)c([C@@H]2CN(c3cccc(=O)n3C)C(=O)[C@H]2NC(=O)c2ccc(OC(F)(F)F)cc2)c(F)c1` [Example 11], the EC50 came to 31 nM in assay [1] and 86 nM in assay [2].

As to `COc1cc(F)c([C@@H]2CN(c3cc(Cl)cc(C(F)(F)F)c3)C(=O)[C@H]2NC(=O)c2ccc(OC(F)F)cc2)c(F)c1` [Example 12], the EC50 in assay [1] is 91 nM; in assay [2], above 10000 nM.

As to `COc1cc(F)c([C@@H]2CN(c3cc(P(C)(C)=O)ccn3)C(=O)[C@H]2NC(=O)c2ccc(OC(F)(F)F)cc2)c(F)c1` [Example 13], the concentration giving a half-maximal response (EC50) in assay [1] was found to be 45 nM; in assay [2] it was 85 nM.

With `COc1cc(F)c([C@@H]2CN(c3cc(F)cc(OC(C)C)c3)C(=O)[C@H]2NC(=O)c2ccc(OC(F)(F)F)cc2)c(F)c1` [Example 14], the half-maximal effective concentration (EC50) in assay [1] stood at 37 nM; in assay [2] it was 43 nM.

With `COc1cc(F)c([C@@H]2CN(c3ncccc3C#N)C(=O)[C@H]2NC(=O)c2ccc(OC(F)(F)F)cc2)c(F)c1` [Example 15], the EC50 in assay [1] is 22 nM; in assay [2], 1100 nM.

Take `COc1cc(F)c([C@@H]2CN(Cc3ccccc3P(C)(C)=O)C(=O)[C@H]2NC(=O)c2ccc(OC(F)(F)F)cc2)c(F)c1` [Example 17]: the EC50 came out at 36 nM in assay [1] and 69 nM in assay [2].

As to `COc1cc(F)c([C@@H]2CN(Cc3ccccc3P(C)(C)=O)C(=O)[C@H]2NC(=O)c2ccc(OC(F)F)cc2)c(F)c1` [Example 18], the EC50 in assay [1] came out at 37 nM; in assay [2], 200 nM.

For `COc1cc(F)c([C@@H]2CN(c3ccccc3P(C)(C)=O)C(=O)[C@H]2NC(=O)c2ccc(OC(F)(F)F)cc2)c(F)c1` [Example 19], the EC50 in assay [1] worked out at 24 nM; in assay [2], 540 nM.

As for `COc1cc(F)c([C@@H]2CN(CC3CC3)C(=O)[C@H]2NC(=O)c2ccc(OC(F)(F)F)cc2)c(F)c1` [Example 20], the EC50 in assay [1] was 32 nM; in assay [2], 560 nM.

Take `COc1cc(F)c([C@@H]2CN(c3cccnc3C#N)C(=O)[C@H]2NC(=O)c2ccc(OC(F)(F)F)cc2)c(F)c1` [Example 21]: the EC50 was determined as 35 nM in assay [1] and 2300 nM in assay [2].

`COc1cc(F)c([C@@H]2CN(c3ncccc3P(C)(C)=O)C(=O)[C@H]2NC(=O)c2ccc(OC(F)(F)F)cc2)c(F)c1` [Example 22]: the EC50 in assay [1] was determined as 13 nM; in assay [2], 3200 nM.

`COc1ccnc(N2C[C@@H](c3c(F)cc(OC)cc3F)[C@H](NC(=O)c3ccc(OC(F)(F)F)cc3)C2=O)c1` [Example 23]: the EC50 in assay [1] turned out to be 28 nM; in assay [2] it was 1500 nM.

As to `COc1cc(F)c([C@@H]2CN(c3cccc(C(F)F)n3)C(=O)[C@H]2NC(=O)c2ccc(OC(F)(F)F)cc2)c(F)c1` [Example 24], the figures for the EC50 in assay [1] and in assay [2] were 45 nM and 300 nM, respectively.

With `COc1cc(F)c([C@@H]2CN(c3ncccc3P(C)(C)=O)C(=O)[C@H]2NC(=O)c2ccc(OC(F)F)cc2)c(F)c1` [Example 25], the figures for the EC50 in assay [1] and in assay [2] were 35 nM and above 10000 nM, respectively.

In the case of `COc1cc(F)c([C@@H]2CN(c3ccc(=O)n(C)c3)C(=O)[C@H]2NC(=O)c2ccc(OC(F)(F)F)cc2)c(F)c1` [Example 26], the EC50 was found to be 35 nM in assay [1] and 27 nM in assay [2].

With `COc1cc(F)c([C@@H]2CN(c3ncccc3CO)C(=O)[C@H]2NC(=O)c2ccc(OC(F)(F)F)cc2)c(F)c1` [Example 27], the EC50 in assay [1] is 27 nM; in assay [2] it was 570 nM.

On to `COc1cc(F)c([C@@H]2CN(c3ncccc3F)C(=O)[C@H]2NC(=O)c2ccc(OC(F)(F)F)cc2)c(F)c1` [Example 28], for which the EC50 in assay [1] came out at 7 nM; in assay [2], 1100 nM.

Take `COc1cc(F)c([C@@H]2CN(c3cc(F)cc(OC(C)C)c3)C(=O)[C@H]2NC(=O)c2ccc(OC(F)F)cc2)c(F)c1` [Example 29]: the EC50 in assay [1] stood at 51 nM; in assay [2] it was 110 nM.

As for `COc1cc(F)c([C@@H]2CN(c3cccnc3P(C)(C)=O)C(=O)[C@H]2NC(=O)c2ccc(OC(F)F)cc2)c(F)c1` [Example 30], the EC50 in assay [1] came out at 10 nM; in assay [2], 750 nM.

With `COc1cc(F)c([C@@H]2CN(c3c(C)ccn(CC(C)O)c3=O)C(=O)[C@H]2NC(=O)c2ccc(OC(F)(F)F)cc2)c(F)c1` (some centres unmarked) [Example 400], the EC50 in assay [1] amounted to 2.9 nM.

Consider `COCC(CO)n1ccc(C)c(N2C[C@@H](c3c(F)cc(OC)cc3F)[C@H](NC(=O)c3ccc(OC(F)(F)F)cc3)C2=O)c1=O` (some centres unmarked) [Example 429], for which the EC50 in assay [1] worked out at 1.5 nM.

As to `COc1ccc([C@@H]2CN(c3ccnn(CCC(F)(F)F)c3=O)C(=O)[C@H]2NC(=O)c2ccc(Cl)cc2)cc1` [Example 671], the EC50 in assay [1] came to 5.8 nM.

Consider `COc1cc(F)c([C@@H]2CN(c3c(C)ccn(CC(O)C4CC4)c3=O)C(=O)[C@H]2NC(=O)c2ccc(OC(F)(F)F)cc2)c(F)c1` (some centres unmarked) [Example 683], for which the EC50 in assay [1] is 13 nM.

Take `COc1cc(F)c([C@@H]2CN(c3c(C)ccn(CC(O)C4CC4)c3=O)C(=O)[C@H]2NC(=O)c2ccc(OC(F)(F)F)cc2)c(F)c1` (some centres unmarked) [Example 686]: the EC50 in assay [2] stood at 0.7 nM.

The values are drawn from US20230348426A1, “OXOPYRROLIDINE FPR2 AGONISTS” (Bristol-Myers Squibb Company, priority 2020, published 2023).
